{"source": "patent US20110165136A1", "about": "“Novel Herbal Composition for Treatment of Psoriasis and Other Skin Disorders” (HIMALAYA GLOBAL HOLDINGS LTD., priority 2010, published 2011)", "test_system": "Mouse tail", "assay": "Topical anti-psoriatic activity by Mouse tail test", "type": "in vivo", "details": "follow up study, 0.005%", "text": "Pharmacological Screening of the Extracts and Oils for Topical Anti-Psoriatic Activity by Mouse Tail Test The composite extracts, oils blends and individual alcohol extracts were subjected to screening for evaluation of Anti-psoriatic activity by Mouse tail test and the results are summarized as FIG. 1-4."}
{"smiles": "C=C1/C(=C\\C=C2/CCC[C@]3(C)[C@@H]([C@H](C)/C=C/[C@@H](O)C4CC4)CC[C@@H]23)C[C@@H](O)C[C@@H]1O", "note": "[Calcipotriol]", "values": [{"measurement": "para to orthokeratosis conversion", "result": "not found to be statistically significant"}]}
